Reference: the NIST ThermoML archive (doi:10.1016/j.tca.2009.05.015)
Numbers after ± are expanded uncertainties.

Conditions: 293 K; 101.33 kPa; Crystal; X-ray diffraction

`CCCCCCCCCCCCN.Cl` [dodecanamine hydrochloride] gave a mass density of 1022 ± 2 kg/m3.
